We go through 11 compounds from patent US6156700A, “3-(1,2-Benzisothiazol- and isoxazol-5-yl)-2,4(1H,3H)-pyrimidinedione or thione and 3-(1,2-benzisothiazol- and isoxazol-5-yl)-4(3H)-pyrimidinone or thione herbicidal agents” (American Cyanmid Company, priority 1998, dated 2000).

SMILES strings stand for the structures.

Common to all, as to set-up: scale not given here
The test system of test [1] is ECHORC Watergrass (Calif.). The experiment in a line: Postemergence weed control, flooded paddy (Table IV). The class given is in vivo, Echinochloa oryzoides. An excerpt:
(§1) Plastic containers containing weeds which are 3 to 5 cm tall and rice seedlings at the 1.5 to 2.5 leaf stage are flooded with water. The water is maintained at 1.5 to 3 cm above the soil surface for the duration of the experiment. Test compounds are applied as aqueous/acetone mixtures 50/50 v/v directly into the flood water to provide the equivalent of about 0.0313 to 0.500 kg/ha of active ingredient. The treated containers are placed on greenhouse benches and cared for in accordance with conventional greenhouse procedures. Three to four weeks after treatment, the test is terminated and each container is examined and herbicidal effect rated according to the rating system provided in Example 185. The compounds evaluated are reported by compound number given in Example 185.

Test [2] relates to CYPIR Rice Flatsedge. Described as above. It is filed as in vivo, Cyperus iria.
Description: as §1

Test [3] has as its system CYPSE Flatsedge. The test is described as above. It is filed as in vivo, Cyperus serotinus.
Description: as §1

Test [4] relates to MOOVA Monochoria. The description is as above. It is filed as in vivo, Monochoria vaginalis.
Description: as §1

Test [5] concerns SAGPY Arrowhead (Pygmaea). Described as above. It is filed as in vivo, Sagittaria pygmaea.
Description: as §1

Test [6] concerns ORYSAT Rice, Tebonnet. The experiment in a line: Rice tolerance, flooded paddy (Table IV). To be noted: crop tolerance. It is filed as in vivo, Oryza sativa.
Description: as §1

In the case of `COc1cc(C)c(I)cc1-c1nsc2ccc(-n3c(=O)cc(C(F)(F)F)n(C)c3=O)cc12` [Compound 429, 2,4(1H,3H)-Pyrimidinedione,3-[3-(5-iodo-2-methoxy-p-tolyl)-1,2-benzisothiazol-5-yl]-1-methyl-6-(trifluoromethyl)-], the herbicidal effect rating in test [1] (0.1250 kg/ha) was determined as 6.0; in test [1] (0.2500 kg/ha) it was 9.0; in test [2] (0.1250 kg/ha) it was 7.0; in test [2] (0.2500 kg/ha) it was 9.0; in test [3] (0.1250 kg/ha), 0.0; in test [3] (0.2500 kg/ha), 0.0. The herbicidal effect rating stood at 7.0 in test [4] (0.1250 kg/ha); 7.0 in test [4] (0.2500 kg/ha); 0.0 in test [5] (0.1250 kg/ha); 0.0 in test [5] (0.2500 kg/ha); 2.0 in test [6] (0.1250 kg/ha); 2.0 in test [6] (0.2500 kg/ha).
As to `CCOC(=O)COc1ccc(C)cc1-c1nsc2ccc(-n3c(=O)cc(C(F)(F)F)n(C)c3=O)cc12` [Compound 49, Ethyl {{2-{5-[3,6-dihydro-3-methyl-2,6-dioxo-4-(trifluoromethyl)-1(2H)-pyrimidinyl]-1,2-benzisothiazol-3-yl}-p-tolyl}oxy}acetate], the herbicidal effect rating in test [1] (0.1250 kg/ha) was 9.0; in test [1] (0.2500 kg/ha), 9.0; in test [2] (0.1250 kg/ha) it was 4.0; in test [2] (0.2500 kg/ha) it was 6.0; in test [3] (0.1250 kg/ha), 0.0; in test [3] (0.2500 kg/ha), 0.0. Further, the herbicidal effect rating is 9.0 in test [4] (0.1250 kg/ha); 9.0 in test [4] (0.2500 kg/ha); 0.0 in test [5] (0.1250 kg/ha); 0.0 in test [5] (0.2500 kg/ha); 0.0 in test [6] (0.1250 kg/ha); 0.0 in test [6] (0.2500 kg/ha).
Regarding `COc1cc2c(cc1-c1nsc3ccc(-n4c(=O)cc(C(F)(F)F)n(C)c4=O)cc13)CCC2` [Compound 380, 2,4(1H,3H)-Pyrimidinedione, 3-[3-(6-methoxy-5-indanyl)-1,2-benzisothiazol-5-yl]-1-methyl-6-(trifluoromethyl)-], the herbicidal effect rating in test [1] (0.1250 kg/ha) is 9.0; in test [1] (0.2500 kg/ha) it was 9.0; in test [2] (0.1250 kg/ha), 9.0; in test [2] (0.2500 kg/ha), 9.0; in test [3] (0.1250 kg/ha), 2.0; in test [3] (0.2500 kg/ha), 8.0. Also, the herbicidal effect rating in test [4] (0.1250 kg/ha) came to 9.0; in test [4] (0.2500 kg/ha) it was 9.0; in test [5] (0.1250 kg/ha) it was 2.0; in test [5] (0.2500 kg/ha) it was 8.0; in test [6] (0.1250 kg/ha), 7.0; in test [6] (0.2500 kg/ha), 7.0.
Take `Cn1c(C(F)(F)F)cc(=O)n(-c2ccc3snc(C(=O)C(C)(C)C)c3c2)c1=O` [Compound 432, 2,4(1H,3H)-Pyrimidinedione, 1-methyl-3-(3-pivaloyl-1,2-benzisothiazol-5-yl)-6-(trifluoromethyl)-]: the herbicidal effect rating is 9.0 in test [1] (0.1250 kg/ha); 9.0 in test [1] (0.2500 kg/ha); 9.0 in test [2] (0.1250 kg/ha); 9.0 in test [2] (0.2500 kg/ha); 7.0 in test [3] (0.1250 kg/ha); 9.0 in test [3] (0.2500 kg/ha). Moreover, the herbicidal effect rating in test [4] (0.1250 kg/ha) is 9.0; in test [4] (0.2500 kg/ha), 9.0; in test [5] (0.1250 kg/ha), 2.0; in test [5] (0.2500 kg/ha) it was 4.0; in test [6] (0.1250 kg/ha), 7.0; in test [6] (0.2500 kg/ha), 7.0.
`COc1c(-c2nsc3ccc(-n4c(=O)cc(C(F)(F)F)n(C)c4=O)cc23)ccc(C)c1C` [Compound 267, 2,4(1H,3H)-Pyrimidinedione,3-[3-(2-methoxy-3,4-xylyl)-1,2-benzisothiazol-5-yl]-1-methyl-6-(trifluoromethyl)-]: the herbicidal effect rating turned out to be 9.0 in test [1] (0.1250 kg/ha); 9.0 in test [1] (0.2500 kg/ha); 9.0 in test [2] (0.1250 kg/ha); 9.0 in test [2] (0.2500 kg/ha); 0.0 in test [3] (0.1250 kg/ha); 0.0 in test [3] (0.2500 kg/ha). Besides, the herbicidal effect rating is listed as 9.0 in test [4] (0.1250 kg/ha); 9.0 in test [4] (0.2500 kg/ha); 0.0 in test [5] (0.1250 kg/ha); 0.0 in test [5] (0.2500 kg/ha); 6.0 in test [6] (0.1250 kg/ha); 7.0 in test [6] (0.2500 kg/ha).
For the compound `CCOc1cccc(-c2nsc3ccc(-n4c(=O)cc(C(F)(F)F)n(C)c4=O)cc23)c1` [Compound 327, 2,4(1H,3H)-Pyrimidinedione, 3-[3-(m-ethoxyphenyl)-1,2-benzisothiazol-5-yl]-1-methyl-6-(trifluoromethyl)-], the herbicidal effect rating was determined as 9.0 in test [1] (0.1250 kg/ha); 9.0 in test [1] (0.2500 kg/ha); 9.0 in test [2] (0.1250 kg/ha); 9.0 in test [2] (0.2500 kg/ha); 0.0 in test [3] (0.1250 kg/ha); 2.0 in test [3] (0.2500 kg/ha). The herbicidal effect rating worked out at 9.0 in test [4] (0.1250 kg/ha); 9.0 in test [4] (0.2500 kg/ha); 4.0 in test [5] (0.1250 kg/ha); 4.0 in test [5] (0.2500 kg/ha); 5.0 in test [6] (0.1250 kg/ha); 4.0 in test [6] (0.2500 kg/ha).
Consider `CC(C)Oc1cccc(-c2nsc3ccc(-n4c(=O)cc(C(F)(F)F)n(C)c4=O)cc23)c1` [Compound 328, 2,4(1H,3H)-Pyrimidinedione, 3-[3-(m-isopropoxyphenyl)-1,2-benzisothiazol-5-yl]-1-methyl-6-(trifluoromethyl)-], for which the herbicidal effect rating in test [1] (0.1250 kg/ha) was 9.0; in test [1] (0.2500 kg/ha), 9.0; in test [2] (0.1250 kg/ha) it was 9.0; in test [2] (0.2500 kg/ha), 9.0; in test [3] (0.1250 kg/ha), 6.0; in test [3] (0.2500 kg/ha), 6.0. Also, the herbicidal effect rating in test [4] (0.1250 kg/ha) was 9.0; in test [4] (0.2500 kg/ha) it was 9.0; in test [5] (0.1250 kg/ha) it was 2.0; in test [5] (0.2500 kg/ha) it was 6.0; in test [6] (0.1250 kg/ha), 4.0; in test [6] (0.2500 kg/ha), 4.0.
For the compound `CC(C)S(=O)(=O)NC(=O)c1nsc2ccc(-n3c(=O)cc(C(F)(F)F)n(C)c3=O)cc12` [Compound 362, 1,2-Benzisothiazole-3-carboxamide,5-[3,6-dihydro-3-methyl-2,6-dioxo-4-(trifluoromethyl)-1(2H)-pyrimidinyl]-N-(isopropylsulfonyl)-], the herbicidal effect rating is recorded as 7.0 in test [1] (0.1250 kg/ha); 9.0 in test [1] (0.2500 kg/ha); 8.0 in test [2] (0.1250 kg/ha); 4.0 in test [2] (0.2500 kg/ha); 9.0 in test [3] (0.1250 kg/ha); 9.0 in test [3] (0.2500 kg/ha). The herbicidal effect rating turned out to be 9.0 in test [4] (0.1250 kg/ha); 9.0 in test [4] (0.2500 kg/ha); 4.0 in test [5] (0.1250 kg/ha); 8.0 in test [5] (0.2500 kg/ha); 3.0 in test [6] (0.1250 kg/ha); 6.0 in test [6] (0.2500 kg/ha).
With `CCC(C#N)(CC)c1nsc2ccc(-n3c(=O)cc(C(F)(F)F)n(C)c3=O)cc12` [Compound 445, 1,2-Benzisothiazole-3-acetonitrile, 5-[3,6-dihydro-3-methyl-2,6-dioxo-4-(trifluoromethyl)-1(2H)-pyrimidinyl]-alpha,alpha-diethyl-], the herbicidal effect rating in test [1] (0.1250 kg/ha) came out at 9.0; in test [1] (0.2500 kg/ha), 9.0; in test [2] (0.1250 kg/ha), 9.0; in test [2] (0.2500 kg/ha), 9.0; in test [3] (0.1250 kg/ha) it was 4.0; in test [3] (0.2500 kg/ha), 4.0. In addition, the herbicidal effect rating in test [4] (0.1250 kg/ha) was determined as 2.0; in test [4] (0.2500 kg/ha), 9.0; in test [5] (0.1250 kg/ha) it was 4.0; in test [5] (0.2500 kg/ha) it was 9.0; in test [6] (0.1250 kg/ha), 7.0; in test [6] (0.2500 kg/ha) it was 7.0.
As to `C#CCOC(=O)C(C)(C)Oc1ccc(C)cc1-c1nsc2ccc(-n3c(=O)cc(C(F)(F)F)n(C)c3=O)cc12` [Compound 528, Propionic acid, 2-{{2-{5-[3,6-dihydro-3-methyl-2,6-dioxo-4-(trifluoromethyl)-i(2H)-pyrimidinyl]-1,2-benzisothiazol-3-yl}-p-tolyl}oxy}-2-methyl-, 2-propynyl ester], the herbicidal effect rating amounted to 6.0 in test [2] (0.1250 kg/ha); 6.0 in test [2] (0.2500 kg/ha); 9.0 in test [3] (0.2500 kg/ha); 0.0 in test [5] (0.1250 kg/ha); 2.0 in test [6] (0.1250 kg/ha); 3.0 in test [6] (0.2500 kg/ha).
On to `Cc1ccc(OCC(=O)OCC2(c3ccccc3)CC2)c(-c2nsc3ccc(-n4c(=O)cc(C(F)(F)F)n(C)c4=O)cc23)c1` [Compound 517, Acetic acid, {{2-{5-[3,6-dihydro-3-methyl-2,6-dioxo-4-(trifluoromethyl)-1(2H)-pyrimidinyl]-1,2-benzisothiazol-3-yl}-p-tolyl}oxy}-, (1-phenylcyclopropyl)methyl ester], for which the herbicidal effect rating in test [1] (0.1250 kg/ha) was found to be 0.0; in test [1] (0.2500 kg/ha), 0.0; in test [2] (0.1250 kg/ha), 9.0; in test [2] (0.2500 kg/ha) it was 9.0; in test [3] (0.1250 kg/ha) it was 0.0; in test [6] (0.1250 kg/ha), 0.0. For the same compound, in test [6] (0.2500 kg/ha), the herbicidal effect rating was found to be 0.0.
